From article PMC12796733 (The Journal of Biological Chemistry, 2025) come the findings set out here.

As a reminder, the Kd is the free concentration of one partner at which half of the binding sites on the other are occupied at equilibrium, for simple one-to-one binding. Read a high Kd as weaker binding.

Type in all cases: binding
The target in one assay is T1, Shp (Streptococcus pyogenes, UniProt Q06A48).
T1 construct: E. coli BL21(DE3)
Nature of the assay: isothermal titration calorimetry. The conditions noted are these: PBS pH 7.4, 5% DMSO, 25 °C; one set of sites. (In general: Isothermal titration calorimetry measures the heat released or taken up as one component is titrated into another.)

Assay [1] addresses T2, NEAT2 (Streptococcus pyogenes, UniProt Q99YA0).
T2 construct: gene shr; NEAT2 domain, Ala970-Thr1129 of 1275-residue Shr; E. coli BL21(DE3)
Nature of the assay: isothermal titration calorimetry. The note with it: PBS pH 7.4, 5% DMSO, 25 °C; one set of sites.

For assay [2], the target named is T2, NEAT2. The experiment in a line: differential scanning calorimetry. The conditions noted are these: PBS; 1 mg/ml protein. A general note: In DSC, transitions show as peaks or steps in heat flow.
The target in assay [3] is T3, Linker-NEAT1 (Streptococcus pyogenes, UniProt Q99YA0).
T3 construct: gene shr; linker + NEAT1 domain, Ser294-Gly502 of 1275-residue Shr; E. coli BL21(DE3)
Nature of the assay: isothermal titration calorimetry. The note with it: PBS pH 7.4, 5% DMSO, 25 °C; one set of sites.

In assay [4] the target is T3, Linker-NEAT1. Nature of the assay: differential scanning calorimetry. The conditions noted are these: PBS; 1 mg/ml protein.

T3 sequence (Q99YA0 294-502): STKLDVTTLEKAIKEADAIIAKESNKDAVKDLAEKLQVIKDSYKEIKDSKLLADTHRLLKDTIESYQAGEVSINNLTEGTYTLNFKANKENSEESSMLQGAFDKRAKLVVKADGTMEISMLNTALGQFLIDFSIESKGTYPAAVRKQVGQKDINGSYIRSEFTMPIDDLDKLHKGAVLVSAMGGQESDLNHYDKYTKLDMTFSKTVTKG
T2 sequence (Q99YA0 970-1129): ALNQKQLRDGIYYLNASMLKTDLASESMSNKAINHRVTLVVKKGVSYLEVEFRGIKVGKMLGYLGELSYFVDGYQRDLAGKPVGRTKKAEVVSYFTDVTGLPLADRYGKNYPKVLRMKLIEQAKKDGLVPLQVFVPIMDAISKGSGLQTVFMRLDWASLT
T1 sequence (Q06A48 entry or part of it): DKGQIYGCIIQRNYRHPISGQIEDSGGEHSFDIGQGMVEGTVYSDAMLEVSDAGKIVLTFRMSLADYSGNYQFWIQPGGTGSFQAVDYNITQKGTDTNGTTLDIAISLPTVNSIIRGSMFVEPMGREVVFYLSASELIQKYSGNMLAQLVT

As for heme, the Kd on Shp is less than 0.81 nM; on NEAT2 [1], 12.7 ± 10.3 nM; on Linker-NEAT1 [3], 32 ± 23.4 nM. Besides, at NEAT2 [2], the “Tm with heme (apo 58.1 °C)” value came out at 64.0 °C. Besides, the “Tm with heme (apo 34.6 °C)” value at Linker-NEAT1 [4] was 41.1 °C.
